In ChEMBL document CHEMBL5500400, “Design and Discovery of a Potent and Selective Inhibitor of Integrin αvβ1” (J Med Chem, 2024):
Values belong to the compound of their own block, whether it stands above or below them.

What was measured:
Integrin alpha-V/beta-1 [1] = molecular target: T1, Integrin alpha-V/beta-1 (Homo sapiens, UniProt P05556+P06756); assay: Inhibition of recombinant human Integrin alphaVbeta1 using TMB as substrate incubated for 2 hrs in presence of fibronectin by ELISA; type: protein-complex assay
Integrin alpha-V/beta-3 [2] = molecular target: T2, Integrin alpha-V/beta-3 (Homo sapiens, UniProt P05106+P06756); assay: Inhibition of recombinant human Integrin alphaVbeta3 using TMB as substrate incubated for 2 hrs in presence of vitronectin by ELISA; type: protein-complex assay
T2 sequence (P05106 27-788 limits assumed): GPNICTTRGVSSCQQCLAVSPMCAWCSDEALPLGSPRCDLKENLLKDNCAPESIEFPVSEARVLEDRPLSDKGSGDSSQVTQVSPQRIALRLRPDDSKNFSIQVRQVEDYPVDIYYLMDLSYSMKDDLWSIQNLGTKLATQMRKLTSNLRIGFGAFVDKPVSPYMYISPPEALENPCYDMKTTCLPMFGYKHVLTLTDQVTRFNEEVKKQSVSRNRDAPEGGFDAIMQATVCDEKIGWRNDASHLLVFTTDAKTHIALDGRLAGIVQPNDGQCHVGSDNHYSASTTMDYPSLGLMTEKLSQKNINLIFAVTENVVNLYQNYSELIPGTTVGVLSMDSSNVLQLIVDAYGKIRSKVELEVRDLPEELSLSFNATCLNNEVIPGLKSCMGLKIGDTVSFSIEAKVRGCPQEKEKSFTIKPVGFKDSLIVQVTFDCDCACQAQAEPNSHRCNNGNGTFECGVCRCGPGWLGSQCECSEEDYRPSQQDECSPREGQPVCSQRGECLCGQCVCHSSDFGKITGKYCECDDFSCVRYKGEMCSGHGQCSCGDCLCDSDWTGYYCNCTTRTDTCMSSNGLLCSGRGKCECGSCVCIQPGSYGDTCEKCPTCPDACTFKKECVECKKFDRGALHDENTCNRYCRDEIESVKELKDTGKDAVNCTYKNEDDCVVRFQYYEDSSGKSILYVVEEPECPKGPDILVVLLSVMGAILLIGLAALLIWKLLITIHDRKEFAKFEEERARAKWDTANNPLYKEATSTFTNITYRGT
T2 sequence (P06756 31-889 limits assumed): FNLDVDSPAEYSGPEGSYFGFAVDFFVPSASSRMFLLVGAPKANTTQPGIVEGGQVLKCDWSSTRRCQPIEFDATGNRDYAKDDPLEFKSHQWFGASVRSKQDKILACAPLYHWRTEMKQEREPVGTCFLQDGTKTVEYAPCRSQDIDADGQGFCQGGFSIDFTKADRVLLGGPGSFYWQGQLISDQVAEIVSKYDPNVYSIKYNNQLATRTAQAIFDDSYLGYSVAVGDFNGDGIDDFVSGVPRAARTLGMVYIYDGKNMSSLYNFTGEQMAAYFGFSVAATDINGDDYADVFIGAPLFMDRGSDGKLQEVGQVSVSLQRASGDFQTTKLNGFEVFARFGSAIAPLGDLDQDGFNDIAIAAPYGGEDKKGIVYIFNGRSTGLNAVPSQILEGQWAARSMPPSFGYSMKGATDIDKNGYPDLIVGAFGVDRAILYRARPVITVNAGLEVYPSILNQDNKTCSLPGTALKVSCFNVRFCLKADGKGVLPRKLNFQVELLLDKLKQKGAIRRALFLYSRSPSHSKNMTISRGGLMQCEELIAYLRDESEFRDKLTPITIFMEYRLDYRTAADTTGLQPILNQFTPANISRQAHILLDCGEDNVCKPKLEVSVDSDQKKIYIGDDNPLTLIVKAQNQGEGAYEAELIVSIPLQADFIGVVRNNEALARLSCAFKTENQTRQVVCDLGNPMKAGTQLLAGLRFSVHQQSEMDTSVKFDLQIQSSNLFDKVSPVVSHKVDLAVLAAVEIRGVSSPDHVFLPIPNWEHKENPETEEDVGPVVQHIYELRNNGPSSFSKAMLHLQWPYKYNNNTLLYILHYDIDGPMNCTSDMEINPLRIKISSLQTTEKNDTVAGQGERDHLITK
T2 sequence (P06756 891-1048 limits assumed): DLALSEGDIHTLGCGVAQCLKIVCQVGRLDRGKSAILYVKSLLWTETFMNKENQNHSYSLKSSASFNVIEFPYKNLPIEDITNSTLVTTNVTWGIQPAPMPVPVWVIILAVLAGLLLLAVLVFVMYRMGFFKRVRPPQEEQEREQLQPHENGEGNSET

Integrin alpha-V/beta-5 = Integrin alpha-V/beta-5 (Homo sapiens, UniProt P06756+P18084); assay: Inhibition of recombinant human Integrin alphaVbeta5 using TMB as substrate incubated for 2 hrs in presence of fibronectin by ELISA; type: protein-complex assay
Chain of Integrin alpha-V/beta-5 (P06756 31-889 limits assumed): as the sequence (P06756 31-889 limits assumed) above
Chain of Integrin alpha-V/beta-5 (P06756 891-1048 limits assumed): as the sequence (P06756 891-1048 limits assumed) above
Chain of Integrin alpha-V/beta-5 (P18084 24-799 limits assumed): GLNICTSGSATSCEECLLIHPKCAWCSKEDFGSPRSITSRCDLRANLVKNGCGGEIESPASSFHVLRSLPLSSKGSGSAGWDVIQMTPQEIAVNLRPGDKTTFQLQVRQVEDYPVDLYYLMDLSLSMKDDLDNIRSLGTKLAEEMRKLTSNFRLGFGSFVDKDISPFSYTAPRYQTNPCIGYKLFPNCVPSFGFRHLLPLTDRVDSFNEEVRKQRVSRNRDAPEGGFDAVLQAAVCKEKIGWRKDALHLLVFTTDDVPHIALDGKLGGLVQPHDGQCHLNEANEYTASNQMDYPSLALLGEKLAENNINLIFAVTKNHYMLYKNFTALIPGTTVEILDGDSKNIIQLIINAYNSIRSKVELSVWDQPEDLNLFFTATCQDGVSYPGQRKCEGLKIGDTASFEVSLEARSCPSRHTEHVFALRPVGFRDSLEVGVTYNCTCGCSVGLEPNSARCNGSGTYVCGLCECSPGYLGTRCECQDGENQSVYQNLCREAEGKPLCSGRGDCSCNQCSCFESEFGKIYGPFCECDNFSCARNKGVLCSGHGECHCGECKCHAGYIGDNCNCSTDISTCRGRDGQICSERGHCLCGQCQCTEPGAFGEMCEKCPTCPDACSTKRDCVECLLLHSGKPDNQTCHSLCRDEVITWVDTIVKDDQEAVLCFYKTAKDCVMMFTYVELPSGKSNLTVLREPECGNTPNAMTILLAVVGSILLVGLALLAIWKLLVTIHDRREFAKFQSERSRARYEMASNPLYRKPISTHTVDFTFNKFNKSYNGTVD

Integrin alpha-V/beta-6 [3] = molecular target: T3, Integrin alpha-V/beta-6 (Homo sapiens, UniProt P06756+P18564); assay: Inhibition of recombinant human Integrin alphaVbeta6 using TMB as substrate incubated for 2 hrs in presence of LAP by ELISA; type: protein-complex assay
T3 sequence (P06756 31-889 limits assumed): as the sequence (P06756 31-889 limits assumed) above
T3 sequence (P06756 891-1048 limits assumed): as the sequence (P06756 891-1048 limits assumed) above
T3 sequence (P18564 22-788 limits assumed): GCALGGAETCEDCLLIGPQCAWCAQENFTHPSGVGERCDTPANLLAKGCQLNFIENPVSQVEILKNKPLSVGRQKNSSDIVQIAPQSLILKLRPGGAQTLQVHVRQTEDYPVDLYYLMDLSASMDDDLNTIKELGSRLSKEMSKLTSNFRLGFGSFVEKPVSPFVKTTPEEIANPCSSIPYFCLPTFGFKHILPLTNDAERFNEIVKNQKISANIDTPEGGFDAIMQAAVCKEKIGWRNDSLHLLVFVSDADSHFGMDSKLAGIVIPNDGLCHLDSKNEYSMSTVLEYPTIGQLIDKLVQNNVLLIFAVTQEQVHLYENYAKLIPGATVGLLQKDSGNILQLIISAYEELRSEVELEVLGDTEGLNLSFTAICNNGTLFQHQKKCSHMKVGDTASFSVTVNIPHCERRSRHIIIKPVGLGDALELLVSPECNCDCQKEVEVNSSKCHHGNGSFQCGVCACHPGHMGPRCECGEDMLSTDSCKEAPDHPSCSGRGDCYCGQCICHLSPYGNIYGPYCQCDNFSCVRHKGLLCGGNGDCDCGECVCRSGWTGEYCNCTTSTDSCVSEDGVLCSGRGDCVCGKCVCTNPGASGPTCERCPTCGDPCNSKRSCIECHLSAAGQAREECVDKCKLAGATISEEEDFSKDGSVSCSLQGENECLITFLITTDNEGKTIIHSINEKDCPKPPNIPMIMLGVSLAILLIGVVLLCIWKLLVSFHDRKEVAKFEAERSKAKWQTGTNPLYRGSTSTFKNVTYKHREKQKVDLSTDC

Integrin alpha-V/beta-8 [4] = molecular target: T4, Integrin alpha-V/beta-8 (Homo sapiens, UniProt P06756+P26012); assay: Inhibition of recombinant human Integrin alphaVbeta8 using TMB as substrate incubated for 2 hrs in presence of LAP by ELISA; type: protein-complex assay
T4 sequence (P06756 31-889 limits assumed): as the sequence (P06756 31-889 limits assumed) above
T4 sequence (P06756 891-1048 limits assumed): as the sequence (P06756 891-1048 limits assumed) above
T4 sequence (P26012 43-769 limits assumed): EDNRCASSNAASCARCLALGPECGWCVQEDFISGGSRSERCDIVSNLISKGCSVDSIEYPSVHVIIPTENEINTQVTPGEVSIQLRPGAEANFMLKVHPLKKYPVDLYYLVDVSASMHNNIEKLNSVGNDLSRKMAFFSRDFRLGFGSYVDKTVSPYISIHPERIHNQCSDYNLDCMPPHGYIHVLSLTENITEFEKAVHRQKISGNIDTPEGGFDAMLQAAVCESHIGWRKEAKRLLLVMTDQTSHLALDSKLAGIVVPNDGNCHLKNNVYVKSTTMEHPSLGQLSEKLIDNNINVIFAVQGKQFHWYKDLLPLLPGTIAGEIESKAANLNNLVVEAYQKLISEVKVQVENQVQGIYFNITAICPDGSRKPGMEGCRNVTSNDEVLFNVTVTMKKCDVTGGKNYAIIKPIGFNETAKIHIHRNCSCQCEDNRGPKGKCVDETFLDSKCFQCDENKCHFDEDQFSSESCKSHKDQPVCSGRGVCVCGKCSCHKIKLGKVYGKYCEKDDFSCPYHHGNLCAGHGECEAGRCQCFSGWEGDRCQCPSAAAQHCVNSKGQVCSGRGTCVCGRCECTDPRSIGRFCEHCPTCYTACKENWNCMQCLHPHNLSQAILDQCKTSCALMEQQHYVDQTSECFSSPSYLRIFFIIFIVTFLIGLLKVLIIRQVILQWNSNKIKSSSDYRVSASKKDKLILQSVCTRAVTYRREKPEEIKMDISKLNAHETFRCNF

Integrin alpha-4/beta-1 [5] = molecular target: T5, Integrin alpha-4/beta-1 (Homo sapiens, UniProt P05556+P13612); assay: Inhibition of recombinant human Integrin alpha4beta1 using TMB as substrate incubated for 2 hrs in presence of VCAM-1 by ELISA; type: protein-complex assay
Integrin alpha-5/beta-1 [6] = molecular target: T6, Integrin alpha-5/beta-1 (Homo sapiens, UniProt P05556+P08648); assay: Inhibition of recombinant human Integrin alpha5beta1 using TMB as substrate incubated for 2 hrs in presence of fibronectin by ELISA; type: protein-complex assay
[7] = Apparent permeability across apical to basolateral side in dog MDCK-MDR1 cells incubated for 60 mins by HPLC analysis; type: ADME, cell-based, Canis lupus familiaris
[8] = Apparent permeability across basolateral to apical side in dog MDCK-MDR1 cells incubated for 60 mins by HPLC analysis; type: ADME, cell-based, Canis lupus familiaris
Integrin alpha-V/beta-1 [9] = molecular target: T1, Integrin alpha-V/beta-1; assay: Inhibition of recombinant human Integrin alphaVbeta1 mediated cellular adhesion expressed in CHO-B2 cell incubated for 24 hrs in presence of Ca2+ and Mg2+ by real-time cell analysis; type: cell-based
Integrin alpha-4/beta-1 [10] = molecular target: T5, Integrin alpha-4/beta-1; assay: Inhibition of Integrin alpha4beta1 mediated cellular adhesion in human Jurkat cells incubated for 24 hrs in presence of Ca2+ and Mg2+ by real-time cell analysis; type: cell-based
Integrin alpha-5/beta-1 [11] = molecular target: T6, Integrin alpha-5/beta-1; assay: Inhibition of Integrin alpha5beta1 mediated cellular adhesion in human HCT-116 cells incubated for 24 hrs in presence of Ca2+ and Mg2+ by real-time cell analysis; type: cell-based
Integrin alpha-8/beta-1 = Integrin alpha-8/beta-1 (Homo sapiens, UniProt P05556+P53708); assay: Inhibition of recombinant human Integrin alpha8beta1 mediated cellular adhesion expressed in HEK cells incubated for 24 hrs in presence of Ca2+ and Mg2+ by real-time cell analysis; type: cell-based
Integrin alpha-V/beta-3 [12] = molecular target: T2, Integrin alpha-V/beta-3; assay: Inhibition of recombinant human Integrin alphaVbeta3 mediated cellular adhesion expressed in HEK cells incubated for 24 hrs in presence of Ca2+ and Mg2+ by real-time cell analysis; type: cell-based
Integrin alpha-V/beta-1 [13] = molecular target: T1, Integrin alpha-V/beta-1; assay: Inhibition of human Integrin alphaVbeta1 expressed in CHO-B2 cell cocultured with TGF-beta expressing Mv1Lu cells assessed as inhibition of integrin alphaVbeta1 mediated TGF-beta transactivation by luciferase assay; type: cell-based
Integrin alpha-V/beta-6 [14] = molecular target: T3, Integrin alpha-V/beta-6; assay: Inhibition of human Integrin alphaVbeta6 expressed in SW480 cells cocultured with TGF-beta expressing Mv1Lu cells assessed as inhibition of integrin alphaVbeta6 mediated TGF-beta transactivation by luciferase assay; type: cell-based
Integrin alpha-V/beta-8 [15] = molecular target: T4, Integrin alpha-V/beta-8; assay: Inhibition of Integrin alphaVbeta8 in human SNB-19 cells cocultured with TGF-beta expressing Mv1Lu cells assessed as inhibition of integrin alphaVbeta8 mediated TGF-beta transactivation by luciferase assay; type: cell-based
[16] = Half life in Wistar-Han rat at 1 mg/kg,iv administration; type: ADME, organism-based; conditions: in vivo
[17] = Clearance in Wistar-Han rat at 1 mg/kg,iv administration; type: ADME, organism-based; conditions: in vivo
[18] = AUC (0 to 24 hrs) in Wistar-Han rat at 1 mg/kg,iv administration; type: ADME, organism-based; conditions: in vivo
[19] = AUC (0 to infinity) in Wistar-Han rat at 1 mg/kg,iv administration; type: ADME, organism-based; conditions: in vivo
[20] = Volume of distribution at steady state in Wistar-Han rat at 1 mg/kg,iv administration; type: ADME, organism-based; conditions: in vivo, read-out: Vdss
[21] = Half life in Sprague-Dawley rat at 30 mg/kg,sc administration; type: ADME, organism-based; conditions: in vivo
[22] = Tmax in Sprague-Dawley rat at 30 mg/kg,sc administration; type: ADME, organism-based; conditions: in vivo
[23] = Cmax in Sprague-Dawley rat at 30 mg/kg,sc administration; type: ADME, organism-based; conditions: in vivo
[24] = AUC (0 to 24 hrs) in Sprague-Dawley rat at 30 mg/kg,sc administration; type: ADME, organism-based; conditions: in vivo
[25] = AUC (0 to infinity) in Sprague-Dawley rat at 30 mg/kg,sc administration; type: ADME, organism-based; conditions: in vivo
[26] = Bioavailability in Sprague-Dawley rat at 30 mg/kg,sc administration; type: ADME, organism-based; conditions: in vivo
[27] = Half life in Wistar rat at 10 mg/kg,po administration; type: ADME, organism-based; conditions: in vivo
[28] = Tmax in Wistar rat at 10 mg/kg,po administration; type: ADME, organism-based; conditions: in vivo
[29] = Cmax in Wistar rat at 10 mg/kg,po administration; type: ADME, organism-based; conditions: in vivo
[30] = AUC (0 to 24 hrs) in Wistar rat at 10 mg/kg,po administration; type: ADME, organism-based; conditions: in vivo
[31] = AUC (0 to infinity) in Wistar rat at 10 mg/kg,po administration; type: ADME, organism-based; conditions: in vivo
[32] = Oral bioavailability in Wistar rat at 10 mg/kg administration; type: ADME, organism-based; conditions: in vivo
Rattus norvegicus = assay: Antifibrotic activity against choline-deficient high-fat diet induced Wistar-Han rat liver fibrosis model assessed as reduction in liver fibrosis at sc administration for 6 weeks from period of week 7 to 12 during high-fat diet treatment by picrosirius red staining based analysis; type: functional, organism-based
[33] = Drug concentration in choline-deficient high-fat diet induced Wistar-Han rat plasma at sc administration for 6 weeks from period of week 7 to 12 during high-fat diet treatment; type: ADME, organism-based; conditions: in vivo, 1008 h
[34] = Drug concentration in choline-deficient high-fat diet induced Wistar-Han rat liver at sc administration for 6 weeks from period of week 7 to 12 during high-fat diet treatment; type: ADME, organism-based; conditions: in vivo, 1008 h

SMILES: O=C(NC(CNc1ccccc1)C(=O)O)c1c(Cl)cccc1Cl (stereo not drawn)
IC50 (Integrin alpha-V/beta-1 [1]): 0.2 µM | IC50 (Integrin alpha-V/beta-3 [2]): > 10 µM | IC50 (Integrin alpha-V/beta-5): > 10 µM | IC50 (Integrin alpha-V/beta-6 [3]): > 10 µM | IC50 (Integrin alpha-V/beta-8 [4]): > 10 µM | IC50 (Integrin alpha-5/beta-1 [6]): > 10 µM

SMILES: Cc1nc2ccccc2n1CC(=O)NC[C@H](NC(=O)c1ccccc1Cl)C(=O)O
IC50 (Integrin alpha-V/beta-1 [1]): > 10 µM

SMILES: N=C(N)NCCCCC(=O)Nc1ccc(C[C@H](NC(=O)[C@@H]2CCCN2S(=O)(=O)c2ccccc2)C(=O)O)cc1
IC50 (Integrin alpha-V/beta-1 [9]): 0.0126 µM | IC50 (Integrin alpha-4/beta-1 [10]): 0.0347 µM | IC50 (Integrin alpha-5/beta-1 [11]): 1 µM | IC50 (Integrin alpha-8/beta-1): 5.89 µM | IC50 (Integrin alpha-V/beta-3 [12]): > 10 µM | IC50 (Integrin alpha-V/beta-1 [13]): 0.01 µM | IC50 (Integrin alpha-V/beta-6 [14]): 0.316 µM | IC50 (Integrin alpha-V/beta-8 [15]): 1.74 µM

SMILES: O=C(CN1C(=O)Cc2ccccc21)NC[C@H](NC(=O)c1ccccc1Cl)C(=O)O
IC50 (Integrin alpha-V/beta-1 [1]): > 10 µM

SMILES: O=C(NC(Cc1ccccc1)C(=O)O)c1ccc(Cl)cc1Cl (stereo not drawn)
IC50 (Integrin alpha-V/beta-1 [1]): 5.01 µM | IC50 (Integrin alpha-V/beta-3 [2]): > 31.6 µM | IC50 (Integrin alpha-V/beta-5): > 31.6 µM | IC50 (Integrin alpha-V/beta-6 [3]): > 31.6 µM | IC50 (Integrin alpha-V/beta-8 [4]): > 31.6 µM | IC50 (Integrin alpha-5/beta-1 [6]): > 31.6 µM

SMILES: O=C(CN1C(=O)NCc2ccccc21)NC[C@H](NC(=O)c1ccccc1Cl)C(=O)O
IC50 (Integrin alpha-V/beta-1 [1]): 0.316 µM

Further compounds by falling IC50 (Integrin alpha-V/beta-1 [1]), results first:

IC50 (Integrin alpha-V/beta-1 [1]): 0.0794 µM | Papp A→B at 1 h [7]: 0.4 ×10⁻⁶ cm/s | Papp B→A at 1 h [8]: 0.3 ×10⁻⁶ cm/s
SMILES: Cc1cnc2[nH]c(=O)n(CC(=O)NC[C@H](NC(=O)c3c(Cl)ccc(C)c3F)C(=O)O)c2c1

IC50 (Integrin alpha-V/beta-1 [1]): 0.0126 µM | IC50 (Integrin alpha-V/beta-3 [2]): > 10 µM | IC50 (Integrin alpha-V/beta-5): > 10 µM | IC50 (Integrin alpha-V/beta-6 [3]): 0.501 µM | IC50 (Integrin alpha-V/beta-8 [4]): > 10 µM | IC50 (Integrin alpha-4/beta-1 [5]): 3.16 µM | IC50 (Integrin alpha-5/beta-1 [6]): 0.631 µM
SMILES: O=C(Cn1c(=O)[nH]c2ncccc21)NC[C@H](NC(=O)c1ccccc1Cl)C(=O)O

IC50 (Integrin alpha-V/beta-1 [1]): 0.00501 µM | IC50 (Integrin alpha-V/beta-3 [2]): > 10 µM | IC50 (Integrin alpha-V/beta-5): > 10 µM | IC50 (Integrin alpha-V/beta-6 [3]): > 10 µM | IC50 (Integrin alpha-V/beta-8 [4]): 7.94 µM | IC50 (Integrin alpha-4/beta-1 [5]): 2.51 µM | IC50 (Integrin alpha-5/beta-1 [6]): 0.398 µM
SMILES: O=C(Cn1c(=O)[nH]c2ncccc21)NC[C@H](NC(=O)c1c(F)cccc1Cl)C(=O)O

IC50 (Integrin alpha-V/beta-1 [1]): 0.000631 µM | IC50 (Integrin alpha-V/beta-3 [2]): 5.01 µM | IC50 (Integrin alpha-V/beta-5): 3.98 µM | IC50 (Integrin alpha-V/beta-6 [3]): 3.98 µM | IC50 (Integrin alpha-V/beta-8 [4]): 2 µM | IC50 (Integrin alpha-4/beta-1 [5]): 1.58 µM | IC50 (Integrin alpha-5/beta-1 [6]): 0.0631 µM
SMILES: Cc1ccc(Cl)c(C(=O)N[C@@H](CNC(=O)Cn2c(=O)[nH]c3ncccc32)C(=O)O)c1F

IC50 (Integrin alpha-V/beta-1 [1]): 0.000316 µM | Papp A→B at 1 h [7]: 3 ×10⁻⁶ cm/s | Papp B→A at 1 h [8]: 3.2 ×10⁻⁶ cm/s | IC50 (Integrin alpha-V/beta-1 [9]): 0.427 µM | IC50 (Integrin alpha-4/beta-1 [10]): > 31.6 µM | IC50 (Integrin alpha-5/beta-1 [11]): > 31.6 µM | IC50 (Integrin alpha-8/beta-1): > 31.6 µM | IC50 (Integrin alpha-V/beta-3 [12]): > 10 µM | IC50 (Integrin alpha-V/beta-1 [13]): 0.0437 µM | IC50 (Integrin alpha-V/beta-6 [14]): > 10 µM | IC50 (Integrin alpha-V/beta-8 [15]): 9.55 µM | half-life [16]: 3.32 h | clearance [17]: 0.38 mL/min/kg | AUC(0-t) [18]: 44000 ng·h/mL | AUC(0-inf) [19]: 44000 ng·h/mL | Vd [20]: 0.087 L/kg | half-life [21]: 3.3 h | Tmax [22]: 4.7 h | Cmax [23]: 66000 ng/mL | AUC(0-t) [24]: 630000 ng·h/mL | AUC(0-inf) [25]: 630000 ng·h/mL | bioavailability [26]: 59% | half-life [27]: 5.2 h | Tmax [28]: 2.8 h | Cmax [29]: 390 ng/mL | AUC(0-t) [30]: 4500 ng·h/mL | AUC(0-inf) [31]: 4800 ng·h/mL | bioavailability [32]: 1.3% | Drug uptake [33]: Dose-Dependent Effect | Drug uptake [34]: Dose-Dependent Effect
SMILES: Cc1ccc(Cl)c(C(=O)N[C@@H](CNC(=O)Cn2c(=O)[nH]c3nc(C)c(F)cc32)C(=O)O)c1F
Activity (Rattus norvegicus): Dose-Dependent Effect

IC50 (Integrin alpha-V/beta-1 [1]): 0.0002 µM | IC50 (Integrin alpha-V/beta-3 [2]): 0.001 µM | IC50 (Integrin alpha-V/beta-6 [3]): < 0.000158 µM | IC50 (Integrin alpha-V/beta-8 [4]): < 0.000158 µM | IC50 (Integrin alpha-4/beta-1 [5]): 3.16 µM
SMILES: O=C(CCCCc1ccc2c(n1)NCCC2)NCC(NC(=O)c1c(Cl)cccc1Cl)C(=O)O (racemic)
